For data set [1], the target named is T1, UDP-glucuronosyltransferase 1A9 (Homo sapiens, UniProt O60656).
T1 sequence (O60656 whole entry): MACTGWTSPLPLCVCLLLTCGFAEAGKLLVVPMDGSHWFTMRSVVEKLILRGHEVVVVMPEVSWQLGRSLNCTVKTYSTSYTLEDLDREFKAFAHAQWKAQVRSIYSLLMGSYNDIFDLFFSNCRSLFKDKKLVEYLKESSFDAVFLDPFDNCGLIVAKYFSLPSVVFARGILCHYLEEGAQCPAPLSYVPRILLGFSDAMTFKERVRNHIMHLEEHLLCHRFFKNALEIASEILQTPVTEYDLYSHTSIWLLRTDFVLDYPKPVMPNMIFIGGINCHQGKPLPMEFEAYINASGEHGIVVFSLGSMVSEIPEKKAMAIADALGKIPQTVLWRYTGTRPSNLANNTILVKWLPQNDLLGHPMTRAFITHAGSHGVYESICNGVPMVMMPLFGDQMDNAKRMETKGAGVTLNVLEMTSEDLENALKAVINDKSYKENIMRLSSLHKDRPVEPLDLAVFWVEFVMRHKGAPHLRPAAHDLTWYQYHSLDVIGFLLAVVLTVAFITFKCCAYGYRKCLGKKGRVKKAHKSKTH
The experiment in a line: Activity of human recombinant UGT1A9 expressed in insect cells assessed as enzyme mediated glucuronidation at 500 uM by LC-MS/MS method. Type of data set: ADME.

Data set [2] concerns the target T2, UDP-glucuronosyltransferase 1A10 (Homo sapiens, UniProt Q9HAW8).
T2 sequence (Q9HAW8 whole entry): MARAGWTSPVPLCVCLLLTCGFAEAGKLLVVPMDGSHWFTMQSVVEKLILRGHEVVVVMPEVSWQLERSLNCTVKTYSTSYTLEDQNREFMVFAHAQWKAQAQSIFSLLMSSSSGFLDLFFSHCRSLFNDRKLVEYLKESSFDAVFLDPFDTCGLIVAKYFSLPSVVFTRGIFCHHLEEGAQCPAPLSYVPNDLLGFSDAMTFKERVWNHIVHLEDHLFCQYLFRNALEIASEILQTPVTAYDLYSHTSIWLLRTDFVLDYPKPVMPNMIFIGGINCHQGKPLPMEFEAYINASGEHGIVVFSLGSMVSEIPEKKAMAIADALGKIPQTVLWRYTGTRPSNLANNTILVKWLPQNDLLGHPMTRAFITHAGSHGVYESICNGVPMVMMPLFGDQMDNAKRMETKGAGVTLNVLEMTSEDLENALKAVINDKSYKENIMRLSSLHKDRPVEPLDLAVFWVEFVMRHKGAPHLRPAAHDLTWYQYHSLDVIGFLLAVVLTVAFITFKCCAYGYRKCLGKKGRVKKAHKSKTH
The experiment in a line: Activity of human recombinant UGT1A10 expressed in insect cells assessed as enzyme mediated glucuronidation at 500 uM by LC-MS/MS method. Type of data set: ADME.

For data set [3], the target named is T3, UDP-glucuronosyltransferase 1A6 (Homo sapiens, UniProt P19224).
T3 sequence (P19224 whole entry): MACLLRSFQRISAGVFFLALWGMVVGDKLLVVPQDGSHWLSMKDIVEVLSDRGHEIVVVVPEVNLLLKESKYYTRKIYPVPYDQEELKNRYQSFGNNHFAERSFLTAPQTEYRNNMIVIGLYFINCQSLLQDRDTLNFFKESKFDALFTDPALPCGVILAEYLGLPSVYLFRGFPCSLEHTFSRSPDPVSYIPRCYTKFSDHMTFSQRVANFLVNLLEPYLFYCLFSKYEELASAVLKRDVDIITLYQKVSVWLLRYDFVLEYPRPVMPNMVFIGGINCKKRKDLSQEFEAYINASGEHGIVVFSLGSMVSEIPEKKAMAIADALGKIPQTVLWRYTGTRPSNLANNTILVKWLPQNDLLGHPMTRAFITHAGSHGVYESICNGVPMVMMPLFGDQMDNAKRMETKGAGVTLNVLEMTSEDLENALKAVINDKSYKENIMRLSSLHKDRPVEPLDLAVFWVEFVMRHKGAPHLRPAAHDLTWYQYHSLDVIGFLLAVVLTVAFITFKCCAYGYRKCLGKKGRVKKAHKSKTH
The experiment in a line: Activity of human recombinant UGT1A6 expressed in insect cells assessed as intrinsic clearance for enzyme mediated glucuronidation per mg protein by LC-MS/MS method. Type of data set: ADME.

In data set [4] the target is T4, UDP-glucuronosyltransferase 2B17 (Homo sapiens, UniProt O75795).
T4 sequence (O75795 whole entry): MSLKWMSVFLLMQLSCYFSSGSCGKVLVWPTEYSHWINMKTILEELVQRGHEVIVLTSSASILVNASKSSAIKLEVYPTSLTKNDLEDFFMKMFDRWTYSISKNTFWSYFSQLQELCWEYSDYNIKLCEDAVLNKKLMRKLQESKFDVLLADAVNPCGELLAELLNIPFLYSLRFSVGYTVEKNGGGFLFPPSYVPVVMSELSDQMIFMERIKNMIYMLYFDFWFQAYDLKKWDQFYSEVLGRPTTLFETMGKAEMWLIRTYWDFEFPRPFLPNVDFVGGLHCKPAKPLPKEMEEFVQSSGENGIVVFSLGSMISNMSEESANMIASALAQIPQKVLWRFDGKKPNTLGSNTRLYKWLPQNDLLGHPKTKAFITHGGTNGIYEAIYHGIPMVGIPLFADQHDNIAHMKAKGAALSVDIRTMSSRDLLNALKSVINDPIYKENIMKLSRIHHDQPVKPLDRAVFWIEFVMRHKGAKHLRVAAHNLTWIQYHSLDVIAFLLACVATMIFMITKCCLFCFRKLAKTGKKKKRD
The experiment in a line: Activity of human recombinant UGT2B17 expressed in insect cells assessed as enzyme mediated glucuronidation at 500 uM by LC-MS/MS method. Type of data set: ADME.

A short description of data set [5]: Drug metabolism in human kidney microsomes assessed as drug glucuronidation per mg tissue in absence of BSA by LC-MS/MS method. Type of data set: ADME.
In data set [6] the target is T5, UDP-glucuronosyltransferase 1A1 (Homo sapiens, UniProt P22309).
T5 sequence (P22309 whole entry): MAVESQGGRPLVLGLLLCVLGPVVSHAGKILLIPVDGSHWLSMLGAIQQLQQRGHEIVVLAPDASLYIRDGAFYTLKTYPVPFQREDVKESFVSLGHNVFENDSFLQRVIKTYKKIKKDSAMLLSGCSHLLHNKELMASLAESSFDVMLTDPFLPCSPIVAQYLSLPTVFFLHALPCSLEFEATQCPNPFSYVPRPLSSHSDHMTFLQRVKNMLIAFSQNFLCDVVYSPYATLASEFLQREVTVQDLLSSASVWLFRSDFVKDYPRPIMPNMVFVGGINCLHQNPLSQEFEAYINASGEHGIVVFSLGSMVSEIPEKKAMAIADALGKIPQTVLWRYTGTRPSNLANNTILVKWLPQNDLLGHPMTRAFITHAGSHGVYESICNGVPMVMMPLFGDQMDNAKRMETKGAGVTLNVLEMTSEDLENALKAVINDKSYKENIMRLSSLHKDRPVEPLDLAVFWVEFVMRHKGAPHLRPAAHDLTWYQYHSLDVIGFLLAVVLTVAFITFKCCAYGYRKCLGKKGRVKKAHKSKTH
The experiment in a line: Activity of human recombinant UGT1A1 expressed in insect cells assessed as enzyme mediated glucuronidation in presence of 10 to 50 uM estradiol by LC-MS/MS method. Type of data set: ADME.

Data set [7] can be described thus: Cmax in human at 0.5 mg/kg. Type of data set: ADME, organism-based. Details: dose 0.5 mg/kg. Particulars: in vivo.

From ChEMBL document CHEMBL3526061, “Glucuronidation of edaravone by human liver and kidney microsomes: biphasic kinetics and identification of UGT1A9 as the major UDP-glucuronosyltransferase isoform” (Drug Metab Dispos, 2012) come the findings set out here.

In general, Cmax refers to the maximum level reached in the sampled fluid or tissue.

Regarding `CC1=NN(c2ccccc2)C(=O)C1` [EDARAVONE], the Drug metabolism result is “metabolite_detected” in data set [1], “metabolite_detected” in data set [2], “metabolite_detected” in data set [4] and “metabolite_not_detected” in data set [6]. Further, the clearance in data set [3] came to 1.6 µL/min/mg. Besides, the VmaxH in data set [5] turned out to be 336.5 pmol/min/g. Also, in data set [5], the VmaxL worked out at 2396 pmol/min/g. In addition, the Cmax in data set [7] was 6 µM.
